According to the supplement of paper PMC10307832:

Columns and labels:
Experiment in all cases: relative viability (nuclei count vs DMSO), 5 days (fraction); higher = more cells survive
EHT 1864 + Bortezomib = compound: C1COCCN1CC2=CC(=O)C(=CO2)OCCCCCSC3=C4C=CC(=CC4=NC=C3)C(F)(F)F [EHT 1864] + CC(C)C[C@H](NC(=O)[C@H](Cc1ccccc1)NC(=O)c1cnccn1)B(O)O [Bortezomib] (partner 0.002 µM)
Summary of the method: (§1)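 Lung cancer cell lines, seeded in 1536-well plates, were treated the following day by pin tool with a single drug or with five library-drug doses (not always all listed) in √10 steps on top of a fixed anchor-drug dose. Cells were fixed and nuclei stained in one step after 5 days, and nuclei were counted. Relative viability is the nuclei count for treated wells divided by that for vehicle wells, reported as medians of duplicate plates.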

EHT 1864 + Tozasertib = compound: C1COCCN1CC2=CC(=O)C(=CO2)OCCCCCSC3=C4C=CC(=CC4=NC=C3)C(F)(F)F [EHT 1864] + Cc1cc(Nc2cc(N3CCN(C)CC3)nc(Sc3ccc(NC(=O)C4CC4)cc3)n2)n[nH]1 [Tozasertib] (partner 0.1 µM)
Summary of the method: as §1

EHT 1864 + AZD7762 = compound: C1COCCN1CC2=CC(=O)C(=CO2)OCCCCCSC3=C4C=CC(=CC4=NC=C3)C(F)(F)F [EHT 1864] + NC(=O)Nc1cc(-c2cccc(F)c2)sc1C(=O)N[C@H]1CCCNC1 [AZD7762] (partner 0.2 µM)
Summary of the method: as §1

EHT 1864 + Decitabine = compound: C1COCCN1CC2=CC(=O)C(=CO2)OCCCCCSC3=C4C=CC(=CC4=NC=C3)C(F)(F)F [EHT 1864] + Nc1ncn([C@H]2C[C@H](O)[C@@H](CO)O2)c(=O)n1 [Decitabine] (partner 2 µM)
Summary of the method: as §1

Row | Cell Line | relative viability (EHT 1864 + Bortezomib; first compound 0.04 µM) | relative viability (EHT 1864 + Bortezomib; first compound 0.1265 µM) | relative viability (EHT 1864 + Bortezomib; first compound 0.4 µM) | relative viability (EHT 1864 + Bortezomib; first compound 1.265 µM) | relative viability (EHT 1864 + Bortezomib; first compound 4 µM) | relative viability (EHT 1864 + Tozasertib; first compound 0.04 µM) | relative viability (EHT 1864 + Tozasertib; first compound 0.1265 µM) | relative viability (EHT 1864 + Tozasertib; first compound 0.4 µM) | relative viability (EHT 1864 + Tozasertib; first compound 1.265 µM) | relative viability (EHT 1864 + Tozasertib; first compound 4 µM) | relative viability (EHT 1864 + AZD7762; first compound 0.04 µM) | relative viability (EHT 1864 + AZD7762; first compound 0.1265 µM) | relative viability (EHT 1864 + AZD7762; first compound 0.4 µM) | relative viability (EHT 1864 + AZD7762; first compound 1.265 µM) | relative viability (EHT 1864 + AZD7762; first compound 4 µM) | relative viability (EHT 1864 + Decitabine; first compound 0.04 µM) | relative viability (EHT 1864 + Decitabine; first compound 0.1265 µM) | relative viability (EHT 1864 + Decitabine; first compound 0.4 µM) | relative viability (EHT 1864 + Decitabine; first compound 1.265 µM) | relative viability (EHT 1864 + Decitabine; first compound 4 µM)
1 | LCLC-97TM1 | 0.754 | 0.53 | 0.75 | 0.401 | 0.7 | 0.289 | 0.196 | 0.181 | 0.19 | 0.227 | 0.275 | 0.257 | 0.152 | 0.223 | 0.234 | 0.271 | 0.237 | 0.22 | 0.235 | 0.271
2 | HARA | 1.12 | 1.11 | 1.2 | 1.12 | 0.999 | 0.118 | 0.127 | 0.132 | 0.098 | 0.117 | 0.626 |  | 0.329 | 0.262 | 0.328 | 0.532 |  | 0.563 | 0.564 | 0.425
3 | HCC-78 | 0.409 | 0.534 | 0.432 | 0.456 | 1.1 | 0.432 | 0.236 | 0.278 | 0.335 | 0.563 | 0.82 | 0.59 | 0.67 | 0.602 | 0.422 | 0.735 | 0.726 | 0.577 | 0.713 | 0.789
4 | NCI-H1666 | 0.763 | 0.728 | 0.772 | 0.78 | 0.98 | 0.646 | 0.591 | 0.543 | 0.647 | 0.554 | 0.826 | 0.747 | 0.915 | 0.997 | 1.1 | 0.755 | 0.742 | 0.712 | 0.768 | 0.865
5 | NCI-H2347 | 1.24 |  | 1.13 | 0.894 | 0.995 | 0.606 | 0.446 | 0.501 |  | 0.562 | 0.776 | 0.654 | 0.621 | 0.727 | 0.792 | 0.571 | 0.488 | 0.675 | 0.64 | 0.559
6 | NCI-H838 | 0.873 | 0.47 | 0.778 | 0.906 | 0.614 | 0.244 | 0.227 | 0.26 | 0.241 | 0.223 | 0.959 | 0.895 | 0.886 | 0.872 | 0.959 | 0.472 | 0.438 | 0.442 | 0.445 | 0.431
7 | NCI-H2023 | 0.911 | 0.634 | 0.867 | 1.04 | 0.953 | 0.281 | 0.294 | 0.29 | 0.248 | 0.207 |  |  |  |  |  | 0.213 | 0.212 | 0.223 | 0.259 | 0.176
8 | 201T | 1.14 | 1.04 | 1.05 | 1.09 | 1.09 | 0.916 | 0.912 | 0.983 | 0.853 | 0.864 | 0.578 | 0.575 | 0.61 | 0.594 | 0.652 | 0.86 | 0.874 | 0.863 | 0.8 | 0.778
9 | NCI-H1915 | 1 |  | 1.01 | 0.934 | 0.964 | 0.413 |  | 0.41 | 0.406 | 0.392 | 0.728 |  | 0.681 | 0.711 | 0.719 | 0.259 |  | 0.265 | 0.26 | 0.265
10 | NCI-H2009 | 0.881 | 0.794 | 1.04 | 0.918 | 0.936 | 0.736 | 0.648 | 0.765 | 0.532 | 0.476 |  |  |  |  |  | 0.357 | 0.356 | 0.354 | 0.382 | 0.412
11 | BEN | 0.8 | 0.719 | 0.64 | 0.549 | 0.624 | 0.544 | 0.433 | 0.547 | 0.461 | 0.481 | 0.681 | 0.632 | 0.86 | 0.665 | 0.802 | 0.775 | 0.727 | 0.767 | 0.764 | 0.702
12 | PC-14 | 0.977 | 0.86 | 0.877 | 0.837 | 0.778 | 0.607 |  | 0.555 | 0.623 | 0.53 | 0.368 | 0.248 | 0.394 | 0.304 | 0.433 | 0.213 | 0.201 | 0.265 | 0.244 | 0.162
13 | NCI-H1793 |  |  |  |  |  | 0.294 |  | 0.341 |  | 0.285 | 0.609 | 0.458 | 0.496 | 0.193 | 0.298 | 0.47 | 0.466 | 0.506 | 0.56 | 0.614
14 | NCI-H727 | 0.92 | 0.973 | 0.848 |  | 1.12 | 0.574 | 0.573 | 0.611 | 0.503 | 0.592 | 0.579 | 0.693 | 0.587 | 0.555 | 0.794 | 0.98 | 0.639 | 0.85 | 0.811 | 0.914
15 | NCI-H1355 | 1.32 | 0.908 | 1.12 | 1.32 | 1.24 | 0.558 | 0.452 | 0.582 | 0.391 | 0.464 | 0.876 | 0.65 | 0.725 | 0.688 | 0.68 | 0.391 | 0.326 | 0.355 | 0.369 | 0.328
16 | NCI-H1975 | 0.343 | 0.395 | 0.376 | 0.32 | 0.369 | 0.852 | 0.756 | 0.599 |  | 0.207 | 0.733 | 0.717 | 0.676 | 0.642 | 0.68 | 0.41 | 0.411 | 0.404 | 0.384 | 0.398
17 | LK-2 |  |  |  |  |  | 0.162 |  | 0.169 | 0.198 | 0.164 | 0.462 |  | 0.296 | 0.443 | 0.286 | 0.292 | 0.312 | 0.169 | 0.333 | 0.265
18 | NCI-H661 | 0.866 | 0.705 | 0.769 | 0.655 | 0.716 | 0.385 | 0.335 | 0.355 | 0.33 | 0.379 |  |  |  |  |  | 0.609 | 0.527 | 0.581 | 0.576 | 0.514
